Values of other authors as cited in patent publication US7750010B2, “Tricyclic anilide spirohydantion CGRP receptor antagonists” (Merck Sharp & Dohme Corp., priority 2004, dated 2010).
No end group written: not given here.

Assays:
facial blood flow [1] = details: marmoset, electrical stimulation of the trigeminal ganglion
middle meningeal artery = details: rats, electrical stimulation of the dura mater, prior administration
facial blood flow [2] = details: rat, trigeminal ganglion stimulation

NCCCC[C@H](NC(=O)[C@@H](Cc1cc(Br)c(O)c(Br)c1)NC(=O)N1CCC(N2Cc3ccccc3NC2=O)CC1)C(=O)N1CCN(c2ccncc2)CC1 [BIBN4096BS]
effect on increase in facial blood flow (facial blood flow [1]): could be blocked

CGRP(8-37): a fragment of CGRP that lacks seven N-terminal amino acid residues; a peptide CGRP antagonist (VTHRLAGLLSRSGGVVKNNFVPTNVGSKAF; ends and bridges not checked; UniProt P06881 90-119, looked up, fragment)
effect on increase in diameter of the middle meningeal artery (middle meningeal artery): blocked
effect on increased facial blood flow (facial blood flow [2]): inhibited
